Source: patent publication US8143408B2, “N-(8-heteroaryltetrahydronaphtalene-2yl) or N-(5-heteroarylchromane-3-yl) carboxamide derivatives for the treatment of pain” (AstraZeneca AB, priority 2007, dated 2012)

biological target: T1, Nav1.7 voltage-gated sodium channel (Homo sapiens, UniProt Q15858); test: Whole-cell voltage clamp electrophysiology assay; assay type: cell-based; conditions: cells stably expressing the voltage-gated sodium channel of interest
T1 construct: Gene(s) encoding the full-length protein of the voltage-gated sodium channel of interest are cloned and expressed; expressed in transfected cells
Procedure, shortened: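 Cells expressing full-length channel, exposed to drug by integrated pipetting on automated patch-clamp platforms or by microperfusion in conventional whole-cell patch clamp. Channels activated by a voltage protocol depolarising from a defined holding potential; buffers per platform manufacturer.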

T1 sequence (Q15858 whole entry): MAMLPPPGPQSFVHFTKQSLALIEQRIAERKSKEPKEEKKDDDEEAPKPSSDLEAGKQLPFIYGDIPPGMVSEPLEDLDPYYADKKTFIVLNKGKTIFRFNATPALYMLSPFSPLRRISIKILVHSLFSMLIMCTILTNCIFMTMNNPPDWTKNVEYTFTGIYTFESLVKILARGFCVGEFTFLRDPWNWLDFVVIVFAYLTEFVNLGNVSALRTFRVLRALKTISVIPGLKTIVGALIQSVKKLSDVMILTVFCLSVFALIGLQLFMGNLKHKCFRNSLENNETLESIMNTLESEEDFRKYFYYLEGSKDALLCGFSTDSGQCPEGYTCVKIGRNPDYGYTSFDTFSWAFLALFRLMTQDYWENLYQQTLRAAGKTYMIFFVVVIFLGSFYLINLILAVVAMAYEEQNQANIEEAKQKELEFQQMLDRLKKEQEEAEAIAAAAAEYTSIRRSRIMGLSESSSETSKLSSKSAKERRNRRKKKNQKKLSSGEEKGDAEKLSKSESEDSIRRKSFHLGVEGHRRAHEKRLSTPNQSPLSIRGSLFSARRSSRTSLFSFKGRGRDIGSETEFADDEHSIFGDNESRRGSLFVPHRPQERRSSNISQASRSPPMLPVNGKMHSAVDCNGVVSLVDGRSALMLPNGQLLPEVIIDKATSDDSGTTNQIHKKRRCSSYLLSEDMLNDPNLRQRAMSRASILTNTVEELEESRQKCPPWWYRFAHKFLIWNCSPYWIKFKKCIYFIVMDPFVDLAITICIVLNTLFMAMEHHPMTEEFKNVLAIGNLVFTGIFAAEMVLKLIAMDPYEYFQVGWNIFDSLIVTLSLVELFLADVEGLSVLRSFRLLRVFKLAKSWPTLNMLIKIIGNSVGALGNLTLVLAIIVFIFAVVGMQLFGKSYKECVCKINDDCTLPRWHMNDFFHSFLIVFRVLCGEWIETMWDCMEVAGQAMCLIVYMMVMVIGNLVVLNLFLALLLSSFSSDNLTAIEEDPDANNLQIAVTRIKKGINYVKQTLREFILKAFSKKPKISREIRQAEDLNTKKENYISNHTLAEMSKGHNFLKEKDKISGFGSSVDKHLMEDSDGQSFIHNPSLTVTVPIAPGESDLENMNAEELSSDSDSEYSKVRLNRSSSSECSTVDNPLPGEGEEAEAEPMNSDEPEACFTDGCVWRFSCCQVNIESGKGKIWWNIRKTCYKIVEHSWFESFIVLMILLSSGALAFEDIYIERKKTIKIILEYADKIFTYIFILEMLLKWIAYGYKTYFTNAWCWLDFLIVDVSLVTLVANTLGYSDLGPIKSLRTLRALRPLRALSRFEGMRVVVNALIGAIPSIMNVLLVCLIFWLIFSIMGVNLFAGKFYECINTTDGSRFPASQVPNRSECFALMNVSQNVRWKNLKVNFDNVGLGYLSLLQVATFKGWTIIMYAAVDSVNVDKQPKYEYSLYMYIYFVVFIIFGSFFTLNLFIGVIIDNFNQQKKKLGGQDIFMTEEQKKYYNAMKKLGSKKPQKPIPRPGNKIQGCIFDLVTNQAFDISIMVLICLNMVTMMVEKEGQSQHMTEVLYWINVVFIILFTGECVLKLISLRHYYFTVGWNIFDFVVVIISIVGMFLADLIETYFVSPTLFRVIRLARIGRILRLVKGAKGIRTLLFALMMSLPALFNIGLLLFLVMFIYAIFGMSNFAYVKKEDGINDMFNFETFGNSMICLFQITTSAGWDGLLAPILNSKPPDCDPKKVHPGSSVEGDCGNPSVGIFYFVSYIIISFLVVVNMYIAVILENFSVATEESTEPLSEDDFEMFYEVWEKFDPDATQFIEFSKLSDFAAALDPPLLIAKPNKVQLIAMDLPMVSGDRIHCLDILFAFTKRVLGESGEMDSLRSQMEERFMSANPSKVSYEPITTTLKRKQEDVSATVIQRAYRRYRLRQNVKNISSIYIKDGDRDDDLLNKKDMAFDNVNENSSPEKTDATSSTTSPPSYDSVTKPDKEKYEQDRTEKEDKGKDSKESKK

Row | SMILES | IC50 [nM]
1 | COc1ncc(-c2cccc3c2C[C@H](NC(=O)c2ccc(C(=O)N(C)CC(C)C)nc2)CO3)cn1 [Example 112, N^2-isobutyl-N^5-[(3S)-5-(2-methoxypyrimidin-5-yl)-3,4-dihydro-2H-chromen-3-yl]-N^2-methylpyridine-2,5-dicarboxamide] | 1580
2 | O=C(N[C@@H]1COc2cccc(-c3ccncc3)c2C1)c1ccc(OCc2nccs2)nc1 [Example 114, N-[(3S)-5-pyridin-4-yl-3,4-dihydro-2H-chromen-3-yl]-6-(1,3-thiazol-2-ylmethoxy)nicotinamide] | 1000
3 | Cn1ccnc1COc1ccc(C(=O)N[C@@H]2COc3cccc(-c4ccncc4)c3C2)cn1 [Example 116, 6-[(1-methyl-1H-imidazol-2-yl)methoxy]-N-[(3S)-5-pyridin-4-yl-3,4-dihydro-2H-chromen-3-yl]nicotinamide] | 2000
4 | O=C(N[C@@H]1COc2cccc(-c3ccncc3)c2C1)c1ccc(OCc2ccccn2)nc1 [Example 118, N-[(3S)-5-pyridin-4-yl-3,4-dihydro-2H-chromen-3-yl]-6-(pyridin-2-ylmethoxy)nicotinamide] | 1580
5 | O=C(N[C@@H]1COc2cccc(-c3ccncc3)c2C1)c1ccc(OCc2cccnc2)nc1 [Example 119, N-[(3S)-5-pyridin-4-yl-3,4-dihydro-2H-chromen-3-yl]-6-(pyridin-3-ylmethoxy)nicotinamide] | 2000
6 | O=C(N[C@@H]1COc2cccc(-c3ccncc3)c2C1)c1ccc(OCc2cnccn2)nc1 [Example 120, 6-(pyrazin-2-ylmethoxy)-N-[(3S)-5-pyridin-4-yl-3,4-dihydro-2H-chromen-3-yl]nicotinamide] | 1580
7 | COc1ncc(-c2cccc3c2C[C@H](NC(=O)c2ccc(OCC4CCCO4)nc2)CO3)cn1 (stereo partly drawn) [Example 121, N-[(3S)-5-(2-methoxypyrimidin-5-yl)-3,4-dihydro-2H-chromen-3-yl]-6-(tetrahydrofuran-2-ylmethoxy)nicotinamide] | 5010
8 | COc1ncc(-c2cccc3c2C[C@H](NC(=O)c2ccc(OCC4CCCCO4)nc2)CO3)cn1 (stereo partly drawn) [Example 122, N-[(3S)-5-(2-methoxypyrimidin-5-yl)-3,4-dihydro-2H-chromen-3-yl]-6-(tetrahydro-2H-pyran-2-ylmethoxy)nicotinamide] | 2000
9 | COc1ncc(-c2cccc3c2C[C@H](NC(=O)c2ccc(OCC4CCOCC4)nc2)CO3)cn1 [Example 123, N-[(3S)-5-(2-methoxypyrimidin-5-yl)-3,4-dihydro-2H-chromen-3-yl]-6-(tetrahydro-2H-pyran-4-ylmethoxy)nicotinamide] | 1000
10 | COCCOc1ccc(C(=O)N[C@@H]2COc3cccc(-c4ccncc4)c3C2)cn1 [Example 126, 6-(2-methoxyethoxy)-N-[(3S)-5-pyridin-4-yl-3,4-dihydro-2H-chromen-3-yl]nicotinamide] | 2000
11 | O=C(N[C@@H]1COc2cccc(-c3ccncc3)c2C1)c1ccc(OCC2CCO2)nc1 (stereo partly drawn) [Example 127, 6-(oxetan-2-ylmethoxy)-N-[(3S)-5-pyridin-4-yl-3,4-dihydro-2H-chromen-3-yl]nicotinamide] | 3160
12 | CO[C@H](C)COc1ccc(C(=O)N[C@@H]2COc3cccc(-c4ccncc4)c3C2)cn1 [Example 128, 6-{[(2R)-2-methoxypropyl]oxy}-N-[(3S)-5-pyridin-4-yl-3,4-dihydro-2H-chromen-3-yl]nicotinamide] | 1000
13 | O=C(N[C@@H]1COc2cccc(-c3ccncc3)c2C1)c1ccc(C(=O)NC2CCOCC2)nc1 [Example 130, N^5-[(3S)-5-pyridin-4-yl-3,4-dihydro-2H-chromen-3-yl]-N^2-(tetrahydro-2H-pyran-4-yl)pyridine-2,5-dicarboxamide] | 3980
14 | COCCOc1ccc(C(=O)N[C@@H]2COc3cccc(-c4cccnc4)c3C2)cn1 [Example 137, 6-(2-methoxyethoxy)-N-[(3S)-5-pyridin-3-yl-3,4-dihydro-2H-chromen-3-yl]nicotinamide] | 794
15 | COCCn1nc(C)c(C(=O)N[C@@H]2COc3cccc(-c4cccnc4)c3C2)n1 [Example 138, 2-(2-methoxyethyl)-5-methyl-N-[(3S)-5-pyridin-3-yl-3,4-dihydro-2H-chromen-3-yl]-2H-1,2,3-triazole-4-carboxamide] | 3160

Further compounds by falling IC50, results first:

Row | IC50 [nM] | SMILES
16 | 794 | O=C(N[C@@H]1COc2cccc(-c3cccnc3)c2C1)c1cnc(OC2CCOCC2)cn1 [Example 133, N-[(3S)-5-pyridin-3-yl-3,4-dihydro-2H-chromen-3-yl]-5-(tetrahydro-2H-pyran-4-yloxy)pyrazine-2-carboxamide]
17 | 631 | O=C(N[C@@H]1COc2cccc(-c3ccncc3)c2C1)c1ccc(C(=O)NCC(F)(F)F)nc1 [Example 131, N^5-[(3S)-5-pyridin-4-yl-3,4-dihydro-2H-chromen-3-yl]-N^2-(2,2,2-trifluoroethyl)pyridine-2,5-dicarboxamide]
18 | 501 | O=C(N[C@@H]1COc2cccc(-c3ccncc3)c2C1)c1ccc(S(=O)(=O)C2CCCC2)nc1 [Example 117, 6-(cyclopentylsulfonyl)-N-[(3S)-5-pyridin-4-yl-3,4-dihydro-2H-chromen-3-yl]nicotinamide]
19 | 316 | Cc1cc(COc2ccc(C(=O)N[C@@H]3COc4cccc(-c5ccncc5)c4C3)cn2)no1 [Example 115, 6-[(5-methylisoxazol-3-yl)methoxy]-N-[(3S)-5-pyridin-4-yl-3,4-dihydro-2H-chromen-3-yl]nicotinamide]
20 | 316 | COc1ncc(-c2cccc3c2C[C@H](NC(=O)c2ccc(C(=O)NCCC(F)(F)F)nc2)CO3)cn1 [Example 125, N^5-[(3S)-5-(2-methoxypyrimidin-5-yl)-3,4-dihydro-2H-chromen-3-yl]-N^2-(3,3,3-trifluoropropyl)pyridine-2,5-dicarboxamide]
21 | 316 | COc1ccc(-c2cccc3c2C[C@H](NC(=O)c2ccc(OC4CCOCC4)nc2)CO3)cn1 [Example 134, N-[(3S)-5-(6-methoxypyridin-3-yl)-3,4-dihydro-2H-chromen-3-yl]-6-(tetrahydro-2H-pyran-4-yloxy)nicotinamide]
22 | 316 | COc1ccc(-c2cccc3c2C[C@H](NC(=O)c2ccc(OC4CCCOC4)nc2)CO3)cn1 (stereo partly drawn) [Example 135, N-[(3S)-5-(6-methoxypyridin-3-yl)-3,4-dihydro-2H-chromen-3-yl]-6-(tetrahydro-2H-pyran-3-yloxy)nicotinamide]
23 | 316 | O=C(N[C@@H]1COc2cccc(-c3ccncc3)c2C1)c1ccc(OC2CCCOC2)nc1 (stereo partly drawn) [Example 136, N-[(3S)-5-pyridin-4-yl-3,4-dihydro-2H-chromen-3-yl]-6-(tetrahydro-2H-pyran-3-yloxy)nicotinamide]
24 | 200 | O=C(N[C@@H]1COc2cccc(-c3ccncc3)c2C1)c1ccc(OC2CCOCC2)nc1 [Example 129, N-[(3S)-5-pyridin-4-yl-3,4-dihydro-2H-chromen-3-yl]-6-(tetrahydro-2H-pyran-4-yloxy)nicotinamide]
25 | 158 | CC#CCOc1ccc(C(=O)N[C@@H]2COc3cccc(-c4cnc(OC)nc4)c3C2)cn1 [Example 124, 6-(but-2-yn-1-yloxy)-N-[(3S)-5-(2-methoxypyrimidin-5-yl)-3,4-dihydro-2H-chromen-3-yl]nicotinamide]
26 | 79.4 | O=C(N[C@@H]1COc2cccc(-c3cccnc3)c2C1)c1ccc(C(=O)NCCC(F)(F)F)nc1 [Example 132, N^5-[(3S)-5-pyridin-3-yl-3,4-dihydro-2H-chromen-3-yl]-N^2-(3,3,3-trifluoropropyl)pyridine-2,5-dicarboxamide]
